Source: ChEMBL document CHEMBL3046319, “PCR-RFLP detection of the E198A mutation conferring resistance to benzimidazoles in field isolates of Monilinia laxa from Greece” (Crop Prot, 2012)

Assays:
Type in all cases: functional
Monilinia laxa [1] = assay: Fungicidal activity against Monilinia laxa isolate MLBO5 assessed as mycelial growth at 1 ug/ml at 25 degC after 4 days
Monilinia laxa [2] = assay: Fungicidal activity against Monilinia laxa isolate MLX1 assessed as mycelial growth at 1 ug/ml at 25 degC after 4 days
Monilinia laxa [3] = assay: Fungicidal activity against Monilinia laxa isolate MLBO2 assessed as mycelial growth at 1 ug/ml at 25 degC after 4 days
Monilinia laxa [4] = assay: Fungicidal activity against Monilinia laxa isolate MLK12 assessed as mycelial growth at 1 ug/ml at 25 degC after 4 days
Monilinia laxa [5] = assay: Fungicidal activity against Monilinia laxa isolate MLA1 assessed as mycelial growth at 1 ug/ml at 25 degC after 4 days
Monilinia laxa [6] = assay: Fungicidal activity against Monilinia laxa isolate MLX5 assessed as mycelial growth at 1 ug/ml at 25 degC after 4 days
Monilinia laxa [7] = assay: Fungicidal activity against Monilinia laxa isolate MLP2 assessed as mycelial growth at 1 ug/ml at 25 degC after 4 days
Monilinia laxa [8] = assay: Fungicidal activity against Monilinia laxa isolate MLP4 assessed as mycelial growth at 1 ug/ml at 25 degC after 4 days
Monilinia laxa [9] = assay: Fungicidal activity against Monilinia laxa isolate MLK1 assessed as mycelial growth at 1 ug/ml at 25 degC after 4 days
Monilinia laxa [10] = assay: Fungicidal activity against Monilinia laxa isolate MLC2 assessed as mycelial growth at 1 ug/ml at 25 degC after 4 days
Monilinia laxa [11] = assay: Fungicidal activity against Monilinia laxa isolate MLG1 assessed as mycelial growth at 1 ug/ml at 25 degC after 4 days
Monilinia laxa [12] = assay: Fungicidal activity against Monilinia laxa isolate MLG1 assessed as mycelial growth at 0.5 ug/ml at 25 degC after 4 days
Monilinia laxa [13] = assay: Fungicidal activity against Monilinia laxa isolate MLX1 assessed as mycelial growth at 0.5 ug/ml at 25 degC after 4 days
Monilinia laxa [14] = assay: Fungicidal activity against Monilinia laxa isolate MLK1 assessed as mycelial growth at 0.5 ug/ml at 25 degC after 4 days
Monilinia laxa [15] = assay: Fungicidal activity against Monilinia laxa isolate MLBO5 assessed as mycelial growth at 0.5 ug/ml at 25 degC after 4 days
Monilinia laxa [16] = assay: Fungicidal activity against Monilinia laxa isolate MLP2 assessed as mycelial growth at 0.5 ug/ml at 25 degC after 4 days
Monilinia laxa [17] = assay: Fungicidal activity against Monilinia laxa isolate MLP4 assessed as mycelial growth at 0.5 ug/ml at 25 degC after 4 days
Monilinia laxa [18] = assay: Fungicidal activity against Monilinia laxa isolate MLX5 assessed as mycelial growth at 0.5 ug/ml at 25 degC after 4 days
Monilinia laxa [19] = assay: Fungicidal activity against Monilinia laxa isolate MLA1 assessed as mycelial growth at 0.5 ug/ml at 25 degC after 4 days
Monilinia laxa [20] = assay: Fungicidal activity against Monilinia laxa isolate MLC2 assessed as mycelial growth at 0.5 ug/ml at 25 degC after 4 days
Monilinia laxa [21] = assay: Fungicidal activity against Monilinia laxa isolate MLK12 assessed as mycelial growth at 0.5 ug/ml at 25 degC after 4 days
Monilinia laxa [22] = assay: Fungicidal activity against Monilinia laxa isolate MLBO2 assessed as mycelial growth at 0.5 ug/ml at 25 degC after 4 days
Monilinia laxa [23] = assay: Fungicidal activity against Monilinia laxa isolate MLP4 assessed as mycelial growth at 0.1 ug/ml at 25 degC after 4 days
Monilinia laxa [24] = assay: Fungicidal activity against Monilinia laxa isolate MLBO2 assessed as mycelial growth at 0.1 ug/ml at 25 degC after 4 days
Monilinia laxa [25] = assay: Fungicidal activity against Monilinia laxa isolate MLK12 assessed as mycelial growth at 0.1 ug/ml at 25 degC after 4 days
Monilinia laxa [26] = assay: Fungicidal activity against Monilinia laxa isolate MLBO5 assessed as mycelial growth at 0.1 ug/ml at 25 degC after 4 days
Monilinia laxa [27] = assay: Fungicidal activity against Monilinia laxa isolate MLG1 assessed as mycelial growth at 0.1 ug/ml at 25 degC after 4 days
Monilinia laxa [28] = assay: Fungicidal activity against Monilinia laxa isolate MLA1 assessed as mycelial growth at 0.1 ug/ml at 25 degC after 4 days
Monilinia laxa [29] = assay: Fungicidal activity against Monilinia laxa isolate MLC2 assessed as mycelial growth at 0.1 ug/ml at 25 degC after 4 days
Monilinia laxa [30] = assay: Fungicidal activity against Monilinia laxa isolate MLK1 assessed as mycelial growth at 0.1 ug/ml at 25 degC after 4 days
Monilinia laxa [31] = assay: Fungicidal activity against Monilinia laxa isolate MLX5 assessed as mycelial growth at 0.1 ug/ml at 25 degC after 4 days
Monilinia laxa [32] = assay: Fungicidal activity against Monilinia laxa isolate MLP2 assessed as mycelial growth at 0.1 ug/ml at 25 degC after 4 days
Monilinia laxa [33] = assay: Fungicidal activity against Monilinia laxa isolate MLX1 assessed as mycelial growth at 0.1 ug/ml at 25 degC after 4 days
Monilinia laxa [34] = assay: Fungicidal activity against Monilinia laxa isolate MLBO5 assessed as mycelial growth at 0.05 ug/ml at 25 degC after 4 days
Monilinia laxa [35] = assay: Fungicidal activity against Monilinia laxa isolate MLX5 assessed as mycelial growth at 0.05 ug/ml at 25 degC after 4 days
Monilinia laxa [36] = assay: Fungicidal activity against Monilinia laxa isolate MLC2 assessed as mycelial growth at 0.05 ug/ml at 25 degC after 4 days
Monilinia laxa [37] = assay: Fungicidal activity against Monilinia laxa isolate MLG1 assessed as mycelial growth at 0.05 ug/ml at 25 degC after 4 days
Monilinia laxa [38] = assay: Fungicidal activity against Monilinia laxa isolate MLP2 assessed as mycelial growth at 0.05 ug/ml at 25 degC after 4 days
Monilinia laxa [39] = assay: Fungicidal activity against Monilinia laxa isolate MLK12 assessed as mycelial growth at 0.05 ug/ml at 25 degC after 4 days
Monilinia laxa [40] = assay: Fungicidal activity against Monilinia laxa isolate MLP4 assessed as mycelial growth at 0.05 ug/ml at 25 degC after 4 days
Monilinia laxa [41] = assay: Fungicidal activity against Monilinia laxa isolate MLA1 assessed as mycelial growth at 0.05 ug/ml at 25 degC after 4 days
Monilinia laxa [42] = assay: Fungicidal activity against Monilinia laxa isolate MLX1 assessed as mycelial growth at 0.05 ug/ml at 25 degC after 4 days
Monilinia laxa [43] = assay: Fungicidal activity against Monilinia laxa isolate MLK1 assessed as mycelial growth at 0.05 ug/ml at 25 degC after 4 days
Monilinia laxa [44] = assay: Fungicidal activity against Monilinia laxa isolate MLBO2 assessed as mycelial growth at 0.05 ug/ml at 25 degC after 4 days
Monilinia laxa [45] = assay: Fungicidal activity against Monilinia laxa isolate MLK1 assessed as mycelial growth at 5 ug/ml at 25 degC after 4 days
Monilinia laxa [46] = assay: Fungicidal activity against Monilinia laxa isolate MLBO2 assessed as mycelial growth at 5 ug/ml at 25 degC after 4 days
Monilinia laxa [47] = assay: Fungicidal activity against Monilinia laxa isolate MLA1 assessed as mycelial growth at 5 ug/ml at 25 degC after 4 days
Monilinia laxa [48] = assay: Fungicidal activity against Monilinia laxa isolate MLP2 assessed as mycelial growth at 5 ug/ml at 25 degC after 4 days
Monilinia laxa [49] = assay: Fungicidal activity against Monilinia laxa isolate MLG1 assessed as mycelial growth at 5 ug/ml at 25 degC after 4 days
Monilinia laxa [50] = assay: Fungicidal activity against Monilinia laxa isolate MLP4 assessed as mycelial growth at 5 ug/ml at 25 degC after 4 days
Monilinia laxa [51] = assay: Fungicidal activity against Monilinia laxa isolate MLX5 assessed as mycelial growth at 5 ug/ml at 25 degC after 4 days
Monilinia laxa [52] = assay: Fungicidal activity against Monilinia laxa isolate MLBO5 assessed as mycelial growth at 5 ug/ml at 25 degC after 4 days
Monilinia laxa [53] = assay: Fungicidal activity against Monilinia laxa isolate MLX1 assessed as mycelial growth at 5 ug/ml at 25 degC after 4 days
Monilinia laxa [54] = assay: Fungicidal activity against Monilinia laxa isolate MLK12 assessed as mycelial growth at 5 ug/ml at 25 degC after 4 days
Monilinia laxa [55] = assay: Fungicidal activity against Monilinia laxa isolate MLC2 assessed as mycelial growth at 5 ug/ml at 25 degC after 4 days

| SMILES | Activity (Monilinia laxa [12]) [%] | Activity (Monilinia laxa [13]) [%] | Activity (Monilinia laxa [14]) [%] | Activity (Monilinia laxa [15]) [%] | Activity (Monilinia laxa [16]) [%] | Activity (Monilinia laxa [17]) [%] | Activity (Monilinia laxa [18]) [%] | Activity (Monilinia laxa [19]) [%] | Activity (Monilinia laxa [20]) [%] | Activity (Monilinia laxa [21]) [%] | Activity (Monilinia laxa [22]) [%] | Activity (Monilinia laxa [34]) [%] | Activity (Monilinia laxa [35]) [%] | Activity (Monilinia laxa [36]) [%] | Activity (Monilinia laxa [37]) [%] | Activity (Monilinia laxa [38]) [%] | Activity (Monilinia laxa [39]) [%] | Activity (Monilinia laxa [40]) [%] | Activity (Monilinia laxa [41]) [%] | Activity (Monilinia laxa [42]) [%] | other results |
| --- | --- | --- | --- | --- | --- | --- | --- | --- | --- | --- | --- | --- | --- | --- | --- | --- | --- | --- | --- | --- | --- |
| CCCCNC(=O)n1c(NC(=O)OC)nc2ccccc21 [BENOMYL] | – | – | – | – | – | – | – | – | – | – | – | – | – | – | – | – | – | – | – | – | Activity (Monilinia laxa [1]): 0%; Activity (Monilinia laxa [2]): 100%; Activity (Monilinia laxa [3]): 0%; Activity (Monilinia laxa [4]): 100%; Activity (Monilinia laxa [5]): 0%; Activity (Monilinia laxa [6]): 0%; Activity (Monilinia laxa [7]): 0%; Activity (Monilinia laxa [8]): 100%; Activity (Monilinia laxa [9]): 100%; Activity (Monilinia laxa [10]): 80.01%; Activity (Monilinia laxa [11]): 0% |
| O=C(Nc1ccccc1-c1ccc(Cl)cc1)c1cccnc1Cl [BOSCALID] | 0 | 60.03 | 62.05 | 0 | 66.82 | 0 | 0 | 42.73 | 0 | 45.05 | 36.67 | – | – | – | – | – | – | – | – | – | – |
| CC1(C(=O)Nc2ccc(O)c(Cl)c2Cl)CCCCC1 [FENHEXAMID] | – | – | – | – | – | – | – | – | – | – | – | – | – | – | – | – | – | – | – | – | Activity (Monilinia laxa [23]): 45.83%; Activity (Monilinia laxa [24]): 10.03%; Activity (Monilinia laxa [25]): 60.05%; Activity (Monilinia laxa [26]): 21.05%; Activity (Monilinia laxa [27]): 0%; Activity (Monilinia laxa [28]): 23.05%; Activity (Monilinia laxa [29]): 50.35%; Activity (Monilinia laxa [30]): 17.65%; Activity (Monilinia laxa [31]): 50.34%; Activity (Monilinia laxa [32]): 25%; Activity (Monilinia laxa [33]): 21.82% |
| N#Cc1c[nH]cc1-c1cccc2c1OC(F)(F)O2 [FLUDIOXONIL] | – | – | – | – | – | – | – | – | – | – | – | 11.01 | 17.5 | 18.3 | 15.05 | 16.05 | 12.78 | 13.89 | 16.22 | 21.09 | Activity (Monilinia laxa [43]): 13.66%; Activity (Monilinia laxa [44]): 17.99% |
| CC(C)NC(=O)N1CC(=O)N(c2cc(Cl)cc(Cl)c2)C1=O [IPRODIONE] | 35.42 | 21.88 | 57.14 | 0 | 28.12 | 45.23 | 54.55 | 30.22 | 46.61 | 45.46 | 40.44 | – | – | – | – | – | – | – | – | – | – |
| COC(=O)N(OC)c1ccccc1COc1ccn(-c2ccc(Cl)cc2)n1 [PYRACLOSTROBIN] | – | – | – | – | – | – | – | – | – | – | – | 49.62 | 51.15 | 34.48 | 25 | 50 | 37.5 | 47.32 | 36.82 | 29.41 | Activity (Monilinia laxa [43]): 50.05%; Activity (Monilinia laxa [44]): 40.65% |
| CC(C)(C)C(O)(CCc1ccc(Cl)cc1)Cn1cncn1 (centres undefined) [TEBUCONAZOLE] | – | – | – | – | – | – | – | – | – | – | – | 49.65 | 65.45 | 39.39 | 25.3 | 34.29 | 30 | 35.71 | 47.41 | 30.77 | Activity (Monilinia laxa [43]): 22.24%; Activity (Monilinia laxa [44]): 48.34% |
| COC(=O)NC(=S)Nc1ccccc1NC(=S)NC(=O)OC [THIOPHANATE METHYL] | – | – | – | – | – | – | – | – | – | – | – | – | – | – | – | – | – | – | – | – | Activity (Monilinia laxa [45]): 100%; Activity (Monilinia laxa [46]): 0%; Activity (Monilinia laxa [47]): 0%; Activity (Monilinia laxa [48]): 0%; Activity (Monilinia laxa [49]): 0%; Activity (Monilinia laxa [50]): 93.75%; Activity (Monilinia laxa [51]): 0%; Activity (Monilinia laxa [52]): 0%; Activity (Monilinia laxa [53]): 100%; Activity (Monilinia laxa [54]): 100%; Activity (Monilinia laxa [55]): 95.25% |
| CCC(C)(NC(=O)c1cc(Cl)c(C)c(Cl)c1)C(=O)CCl (centres undefined) [ZOXAMIDE] | 36.05 | 0 | 0 | 44 | 59.09 | 0 | 39.09 | 48.95 | 0 | 0 | 43.33 | – | – | – | – | – | – | – | – | – | – |
